In US20240207415A1, “BI-FUNCTIONAL COMPOUNDS AND METHODS FOR TARGETED UBIQUITINATION OF ANDROGEN RECEPTOR” (MONTELINO THERAPEUTICS, INC., priority 2022, published 2024):

Test system: 22Rv1-Enz^R
Experiment: 22Rv1-Enz^R cell proliferation assay
Assay type: cell-based
Details: human prostate cancer cell line 22Rv1-Enz^R; 6-day culture, cell media changed every 24 hours; half maximal growth inhibition constant; read-out: 22Rv1-Enz^R proliferation assay GIC50
Protocol: The human prostate cancer cell line, 22Rv1 has been reported to express a high level of AR-V7. According to one procedure, 22Rv1 is seeded at 50,000 cells/well on a 24-well plate in quadruplicate and treated with test compounds in concentrations ranging up to 20 μM for four days. Standard culture media is RPMI-1640 supplemented with 10% fetal bovine serum. The test compound initially is dissolved in DMSO at 50 mM. This stock solution is then diluted as needed for the indicated concentrations. At the end of the four-day period, cells are harvested using 1% trypsin and counted using an automated cell counter.
Selected compounds may be tested in the human prostate cancer cell line, 22Rv1-Enz^R as described in Geun Taek Lee et al., Molecular Cancer Therapeutics, 20:490-9 (2021). These procedures are similar to that described in Experimental Example 1, above, except that the assay conditions are a 6-day culture with cell media changed every 24 hours.
In the following Table (half maximal growth inhibition constant, GIC50): (*)-GIC50 2-10 μM; (++)-GIC50 1.0-2.0 μM; (+++)-GIC50<1.0 μM.

| SMILES | IC50 |
| --- | --- |
| O=C1CCC(c2ccc(OCC(=O)N3CCN(CCOCCOc4c(-c5csc(N6CCOCC6)n5)ccc(F)c4F)CC3)cc2)C(=O)N1 (stereo not drawn) [Example 2, 3-(4-(2-(4-(2-(2-(2,3-Difluoro-6-(2-morpholinothiazol-4-yl)phenoxy)ethoxy)ethyl)piperazin-1-yl)-2-oxoethoxy)phenyl)piperidine-2,6-dione] | 1 to 2 µM |
| O=C(COc1ccc(C2CCC(=O)NC2=O)cc1)NCCOCCOCCOCCOc1c(-c2csc(N3CCOCC3)n2)ccc(F)c1F (stereo not drawn) [Example 3, N-(2-(2-(2-(2-(2,3-Difluoro-6-(2-morpholinothiazol-4-yl)phenoxy)ethoxy)ethoxy)ethoxy)ethyl)-2-(4-(2,6-dioxopiperidin-3-yl)phenoxy)acetamide] | 2 to 10 µM |
| O=C(CCCCCCCCOc1cccc(-c2csc(N3CCOCC3)n2)c1)NCCCCC(=O)Nc1ccc(C2CCC(=O)NC2=O)cc1 (stereo not drawn) [Example 6, N-(5-((4-(2,6-dioxopiperidin-3-yl)phenyl)amino)-5-oxopentyl)-9-(3-(2morpholinothiazol-4-yl)phenoxy)nonanamide] | 2 to 10 µM |
| O=C(CCCCCCCCOc1ccc(-c2csc(N3CCOCC3)n2)cc1)NCCCCC(=O)Nc1ccc(C2CCC(=O)NC2=O)cc1 (stereo not drawn) [Example 7, N-(5-((4-(2,6-Dioxopiperidin-3-yl)phenyl)amino)-5-oxopentyl)-9-(4-(2morpholinothiazol-4-yl)phenoxy)nonanamide] | 1 to 2 µM |
| O=C1CCC(c2ccc(OCCOCCOCCn3cc(CCOc4c(-c5csc(N6CCOCC6)n5)ccc(F)c4F)nn3)cc2)C(=O)N1 (stereo not drawn) [Example 10, 3-(4-(2-(2-(2-(4-(2-(2,3-difluoro-6-(2-morpholinothiazol-4-yl)phenoxy)ethyl)-1H-1,2,3-triazol-1-yl)ethoxy)ethoxy)ethoxy)phenyl)piperidine-2,6-dione] | 2 to 10 µM |
| O=C1CCC(c2ccc(OCCOCCOCCOCCn3cc(CCOc4c(-c5csc(N6CCOCC6)n5)ccc(F)c4F)nn3)cc2)C(=O)N1 (stereo not drawn) [Example 11, 3-(4-(2-(2-(2-(2-(4-(2-(2,3-difluoro-6-(2-morpholinothiazol-4-yl)phenoxy)ethyl)-1H-1,2,3-triazol-1-yl)ethoxy)ethoxy)ethoxy)ethoxy)phenyl)piperidine-2,6-dione] | 1 to 2 µM |
| O=C(CCCCCCCCOc1c(-c2csc(N3CCOCC3)n2)ccc(F)c1F)NCCCCNC(=O)c1ccc(N2CCC(=O)NC2=O)cc1 [Example 15, N-(4-(9-(2,3-difluoro-6-(2-morpholinothiazol-4-yl)phenoxy)nonanamido)butyl)-4-(2,4-dioxotetrahydropyrimidin-1(2H)-yl)benzamide] | 2 to 10 µM |

More lines, now with the values ahead:

| IC50 | SMILES |
| --- | --- |
| < 1 µM | O=C(COc1ccc(C2CCC(=O)NC2=O)cc1)NCCCCCCCCNC(=O)COc1c(-c2csc(N3CCOCC3)n2)ccc(F)c1F (stereo not drawn) [Example 1, 2-(2,3-Difluoro-6-(2-morpholinothiazol-4-yl)phenoxy)-N-(8-(2-(4-(2,6-dioxopiperidin-3-yl)phenoxy)acetamido)octyl)acetamide] |
| < 1 µM | O=C(CCCCCCCCOc1c(-c2csc(N3CCOCC3)n2)ccc(F)c1F)NCCCCC(=O)Nc1ccc(C2CCC(=O)NC2=O)cc1 (stereo not drawn) [Example 4, 9-(2,3-difluoro-6-(2-morpholinothiazol-4-yl)phenoxy)-N-(5-((4-(2,6-dioxopiperidin-3-yl)phenyl)amino)-5-oxopentyl)nonanamide] |
| 2 to 10 µM | O=C1CCC(c2ccc(NC(=O)CCCCCCCCOc3c(-c4csc(N5CCOCC5)n4)ccc(F)c3F)cc2)C(=O)N1 (stereo not drawn) [Example 12, 9-(2,3-difluoro-6-(2-morpholinothiazol-4-yl)phenoxy)-N-(4-(2,6-dioxopiperidin-3-yl)phenyl)nonanamide] |
| 1 to 2 µM | O=C(CCCCCCCCOc1c(-c2csc(N3CCOCC3)n2)ccc(F)c1F)NCCCCCCC(=O)Nc1ccc(C2CCC(=O)NC2=O)cc1 (stereo not drawn) [Example 13, 9-(2,3-difluoro-6-(2-morpholinothiazol-4-yl)phenoxy)-N-(7-((4-(2,6-dioxopiperidin-3-yl)phenyl)amino)-7-oxoheptyl)nonanamide] |
| 1 to 2 µM | O=C(CCCCCCCCOc1c(-c2csc(N3CCOCC3)n2)ccc(F)c1F)NCCOCCOCC(=O)Nc1ccc(C2CCC(=O)NC2=O)cc1 (stereo not drawn) [Example 14, 9-(2,3-difluoro-6-(2-morpholinothiazol-4-yl)phenoxy)-N-(2-(2-(2-((4-(2,6-dioxopiperidin-3-yl)phenyl)amino)-2-oxoethoxy)ethoxy)ethyl)nonanamide] |
